In US20250099448A1, “HETEROCYCLIC COMPOUNDS” (Hoffmann-La Roche Inc., priority 2022, published 2025):

The molecules below were run against T1, MAGL protein (Homo sapiens, UniProt Q99685) (assay: 2-AG assay: MAGL inhibitory activity by hydrolysis of 2-arachidonoylglycerol to arachidonic acid, followed by mass spectrometry). Conditions: 8 μM 2-arachidonoylglycerol, 15 min preincubation, 30 min reaction at RT, RapidFire MS readout.
T1 sequence (Q99685 1-303): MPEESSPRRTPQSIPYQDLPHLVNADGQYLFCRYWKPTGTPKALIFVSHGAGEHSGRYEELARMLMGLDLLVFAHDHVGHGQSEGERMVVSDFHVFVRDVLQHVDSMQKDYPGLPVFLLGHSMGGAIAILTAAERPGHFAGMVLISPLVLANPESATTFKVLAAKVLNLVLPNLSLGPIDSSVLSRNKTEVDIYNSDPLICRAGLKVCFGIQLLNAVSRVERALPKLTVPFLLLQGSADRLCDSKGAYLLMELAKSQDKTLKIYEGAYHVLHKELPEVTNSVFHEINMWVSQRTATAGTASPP
Type: biochemical
Procedure, shortened: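 MAGL was preincubated 15 min at RT with compound (12.5 to […], 3-fold steps) in 50 mM TRIS, 1 mM EDTA, 0.01% Tween-20, 2.5% DMSO. The reaction ran 30 min at RT with 8 μM 2-AG. Arachidonic acid was quantified by RapidFire SPE-MS/MS against a d8-arachidonic acid internal standard.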

Row | IC50 [nM] | Structure (SMILES)
1 | 4.55 | CCn1nc(C(F)(F)F)cc1CN1CC2(C1)CN(C(=O)N1CC3(CC(c4nc(C5CC5)n[nH]4)C3)C1)C2 [compound 553]
2 | 0.56 | O=C(N1CC2(CC(c3nc(C4CC4)n[nH]3)C2)C1)N1CC2(CN(Cc3ccc(S(=O)(=O)C(F)(F)F)cc3F)C2)C1 [compound 554]
3 | 0.34 | N=S(=O)(c1ccc(CC2CC3(C2)CN(C(=O)N2CC4(CC(c5nc(C6(O)CC6)n[nH]5)C4)C2)C3)cc1)C(F)(F)F (stereo not drawn) [compound 555]
4 | 0.45 | N#Cc1cc(C(F)(F)F)ccc1CC1CC2(C1)CN(C(=O)N1CC3(CC(c4nnc(C5CC5)[nH]4)C3)C1)C2 [compound 556]
5 | 12.4 | O=C(N1CC(C23CC(c4nnc(C5(C(F)(F)F)CC5)s4)(C2)C3)C1)N1CC2(CC(c3nc(C4CC4)n[nH]3)C2)C1 [compound 557]
6 | 0.6 | N=S(=O)(c1ccc(CC2CC3(C2)CN(C(=O)N2CC4(CC(c5nc(C6(O)CC6)n[nH]5)C4)C2)C3)cc1)C(F)(F)F (stereo not drawn) [compound 558]
7 | 1.25 | O=C(N1CC2(CC(Cc3cncc(S(=O)(=O)C(F)(F)F)c3)C2)C1)N1CC2(CC(c3nc(C4(O)CC4)n[nH]3)C2)C1 [compound 560]
8 | 1450 | O=C(N1CC2(CC(c3nc(C4CC(F)(F)C4)n[nH]3)C2)C1)N1CC2(CN(Cc3cc(C(F)(F)F)ns3)C2)C1 [compound 561]
9 | 0.2 | CS(=O)(=O)c1cc(Cl)ccc1C12CC(C3CN(C(=O)N4CC5(CC(c6nnc(C7CC7)[nH]6)C5)C4)C3)(C1)C2 [compound 562]
10 | 12.7 | O=C(N1CC(c2ccc(C3(C(F)(F)F)CC3)cc2)C1)N1CC2(CC(c3nc(C4CC(F)(F)C4)n[nH]3)C2)C1 [compound 563]
11 | 0.86 | N=S(=O)(c1ccc(C2CN(C(=O)N3CC4(CC(c5nc(C6(F)CC6)n[nH]5)C4)C3)C2)cc1)C(F)(F)F (stereo not drawn) [compound 564]
12 | 1.04 | O=C(N1CC2(CC(Cc3cnc(C(F)(F)F)nc3)C2)C1)N1CC2(CC(c3nc(C4(F)CC4)n[nH]3)C2)C1 [compound 565]
13 | 14.7 | O=C(N1CC2(CC(Cc3ccc(OC(F)(F)F)nc3)C2)C1)N1CC2(CC(c3nc(C4CC(F)(F)C4)n[nH]3)C2)C1 [compound 566]
14 | 408 | O=C(N1CC2(CC(c3nc(C4CC4)n[nH]3)C2)C1)N1CC2(CN(Cc3cnn(CC(F)(F)F)c3)C2)C1 [compound 568]
15 | 0.09 | N#Cc1ccc(CC2CC3(C2)CN(C(=O)N2CC4(CC(c5nc(C6(F)CC6)n[nH]5)C4)C2)C3)cc1C(F)(F)F [compound 569]
16 | 35.8 | O=C(N1CC(C23CC(Cc4ccc(C(F)(F)F)nc4)(C2)C3)C1)N1CC2(CC(c3nc(C4(O)CC4)n[nH]3)C2)C1 [compound 570]
17 | 0.55 | O=C(N1CC2(CC(Cc3cn(CC(F)(F)F)nc3C(F)(F)F)C2)C1)N1CC2(CC(c3nc(C4CC4)n[nH]3)C2)C1 [compound 571]
18 | 184 | O=C(N1CC2(CC(c3nc(C4CC4)n[nH]3)C2)C1)N1CC2(CN(Cc3cccn(CC(F)(F)F)c3=O)C2)C1 [compound 572]
19 | 904 | O=C(N1CC(C23CC(c4nnc(C5(C(F)(F)F)CC5)o4)(C2)C3)C1)N1CC2(CC(c3nc(C4(O)CC4)n[nH]3)C2)C1 [compound 573]
20 | 65.4 | O=C(N1CC2(CCC(Cc3ccc(C(F)(F)F)cn3)CC2)C1)N1CC2(CC(c3nc(C4CC(F)(F)C4)n[nH]3)C2)C1 [compound 574]
21 | 4.02 | N=S(=O)(c1cccc(OC(F)(F)F)c1)C1CC2(C1)CN(C(=O)N1CC3(CC(c4nnc(C5CC5)[nH]4)C3)C1)C2 (stereo not drawn) [compound 575]
22 | 0.51 | O=C(N1CC(C23CC(NCC4(C(F)(F)F)CC4)(C2)C3)C1)N1CC2(CC(c3nc(C4(F)CC4)n[nH]3)C2)C1 [compound 578]
23 | 24 | N#Cc1cc(CC2CC3(C2)CN(C(=O)N2CC4(CC(c5nc(C6CC(F)(F)C6)n[nH]5)C4)C2)C3)cc(C(F)(F)F)c1 [compound 579]

Row | IC50 [nM] | Structure (SMILES)
24 | 679 | Cn1ncc(CN2CC3(C2)CN(C(=O)N2CC4(CC(c5nc(C6CC6)n[nH]5)C4)C2)C3)c1S(N)(=O)=O [compound 580]
25 | 2.22 | CC(C)(C)Cc1nnc(C23CC(C4CN(C(=O)N5CC6(CC(c7nc(C8CC8)n[nH]7)C6)C5)C4)(C2)C3)s1 [compound 581]
26 | 167 | CS(=O)(=O)c1ccc(CC2CC3(C2)CN(C(=O)N2CC4(CC(c5nc(C6CC(F)(F)C6)n[nH]5)C4)C2)C3)cc1 [compound 582]
27 | 295 | CC(C)(C)Cc1nnc(C23CC(C4CN(C(=O)N5CC6(CC(c7nc(C8CC(F)(F)C8)n[nH]7)C6)C5)C4)(C2)C3)s1 [compound 583]
28 | 0.48 | O=C(N1CC2(CC(c3nc(C4CC4)n[nH]3)C2)C1)N1CC2(CN(Cc3ccc(C(F)(F)F)cc3F)C2)C1 [compound 584]
29 | 0.06 | N#Cc1cc(CC2CC3(C2)CN(C(=O)N2CC4(CC(c5nc(C6(F)CC6)n[nH]5)C4)C2)C3)ccc1C(F)(F)F [compound 585]
30 | 5.47 | O=C(N1CC2(CC(Cc3ccc(F)cc3F)C2)C1)N1CC2(CC(c3nc(C4CC(F)(F)C4)n[nH]3)C2)C1 [compound 586]
31 | 2.4 | Cc1cc(C2CC2)n(C23CC(C4CN(C(=O)N5CC6(CC(c7nc(C8CC8)n[nH]7)C6)C5)C4)(C2)C3)n1 [compound 587]
32 | 40.4 | Cc1cc(C2CC2)n(C23CC(C4CN(C(=O)N5CC6(CC(c7nc(C8(O)CC8)n[nH]7)C6)C5)C4)(C2)C3)n1 [compound 588]
33 | 0.59 | O=C(N1CC2(CC(Cc3cc(C(F)(F)F)n[nH]3)C2)C1)N1CC2(CC(c3nc(C4(O)CC4)n[nH]3)C2)C1 [compound 589]
34 | 0.34 | N#Cc1ccc(CC2CC3(C2)CN(C(=O)N2CC4(CC(c5nc(C6CC6)n[nH]5)C4)C2)C3)cc1C(F)(F)F [compound 590]
35 | 3.64 | CC(C)(C)c1conc1CN1CC2(C1)CN(C(=O)N1CC3(CC(c4nc(C5CC5)n[nH]4)C3)C1)C2 [compound 591]
36 | 1.38 | Cn1ncc(OC2CC3(C2)CN(C(=O)N2CC4(CC(c5nc(C6CC6)n[nH]5)C4)C2)C3)c1C(F)(F)F [compound 592]
37 | 1.36 | O=C(N1CC(C23CC(Nc4cnc(C(F)(F)F)cn4)(C2)C3)C1)N1CC2(CC(c3nc(C4(O)CC4)n[nH]3)C2)C1 [compound 593]
38 | 0.02 | O=C(N1CC2(CC(c3nc(C4CC4)n[nH]3)C2)C1)N1CC2(CC[C@H](Cc3cccc(S(=O)(=O)C(F)(F)F)c3)C2)C1 [compound 594]
39 | 3.63 | Cc1cc(C23CC(C4CN(C(=O)N5CC6(CC(c7nc(C8CC8)n[nH]7)C6)C5)C4)(C2)C3)[nH]n1 [compound 595]
40 | 357 | O=C(N1CC2(CC(c3nc(C4CC(F)(F)C4)n[nH]3)C2)C1)N1CC2(CN(Cc3ncc(C(F)(F)F)s3)C2)C1 [compound 596]
41 | 135 | O=C(N1CC2(CC(c3nc(C4CC4)n[nH]3)C2)C1)N1CC2(CN(Cc3ccnn3CC(F)F)C2)C1 [compound 597]
42 | 1.89 | O=C(N1CC2(CC(c3nc(C4(F)CC4)n[nH]3)C2)C1)N1CC2(CN(Cc3ncc(C(F)(F)F)s3)C2)C1 [compound 598]
43 | 0.84 | O=C(N1CC2(CC(c3nc(C4(O)CC4)n[nH]3)C2)C1)N1CC2(CC[C@@H](Cc3ccc(S(=O)(=O)C(F)(F)F)cc3)C2)C1 [compound 599]
44 | 26.4 | O=C(N1CC2(CC(c3nc(C4CC4)n[nH]3)C2)C1)N1CC2(CN(Cc3ccn(C(F)(F)F)n3)C2)C1 [compound 601]
45 | 0.11 | Cn1nc(CC2CC3(C2)CN(C(=O)N2CC4(CC(c5nc(C6(F)CC6)n[nH]5)C4)C2)C3)cc1C(F)(F)F [compound 602]
